Laboratory results published in the CheMixHub ionic liquid set.

Assay: xn = mol fraction of the nth substance listed
Conditions: for viscosity: 100 kPa; for electrical conductivity: 101 kPa

CCCCCC[n+]1ccn(C)c1.O=S(=O)([O-])C(F)(F)F + CC(C)O
Conditions | viscosity [mPa·s]
293.15 K, x2 = 0.9231 | 3.79
298.15 K, x2 = 0.1282 | 99
298.15 K, x2 = 0.2454 | 67.9
298.15 K, x2 = 0.469 | 31.4
303.15 K, x2 = 0.3506 | 41.2
313.15 K, x2 = 0.9231 | 2.08

CCOP(=O)([O-])OCC.CC[n+]1ccn(C)c1 + CC(C)O + O
Conditions | viscosity [mPa·s]
298.15 K, x2 = 0.299, x3 = 0.3 | 79
313.15 K, x2 = 0.199, x3 = 0.2008 | 90
323.15 K, x2 = 0.099, x3 = 0.0998 | 94
323.15 K, x2 = 0.15, x3 = 0.1498 | 76

CCCCCCCCCCCCCCCC[n+]1ccccc1.O=C([O-])c1ccccc1O + CC(C)[C@H](N)C(=O)O + O
electrical conductivity [S/m]
Conditions | 293.15 K | 298.15 K | 303.15 K | 308.15 K | 313.15 K
x2 = 0.0009002, x1 = 3.6e-07 | 0.000683 | 0.000771 | 0.000864 | 0.000967 | 0.00108
x2 = 0.0009002, x1 = 7.2e-07 | 0.000869 | 0.000983 | 0.0011 | 0.00123 | 0.00136
x2 = 0.0009002, x1 = 1.27e-06 | 0.00105 | 0.00118 | 0.00133 | 0.00148 | 0.00164
x2 = 0.0009002, x1 = 1.63e-06 | 0.00122 | 0.00138 | 0.00155 | 0.00173 | 0.00192
x2 = 0.0009002, x1 = 1.99e-06 | 0.00138 | 0.00156 | 0.00175 | 0.00194 | 0.00215
x2 = 0.0009002, x1 = 2.35e-06 | 0.00152 | 0.00174 | 0.00196 | 0.00219 | 0.00243
x2 = 0.0009002, x1 = 2.9e-06 | 0.00168 | 0.00193 | 0.00219 | 0.00247 | 0.00274
x2 = 0.0009002, x1 = 3.44e-06 | 0.00182 | 0.00207 | 0.00235 | 0.00266 | 0.003
x2 = 0.0009002, x1 = 3.98e-06 | 0.00195 | 0.00223 | 0.00254 | 0.00287 | 0.00322
x2 = 0.0009002, x1 = 4.53e-06 | 0.00208 | 0.00236 | 0.00269 | 0.00303 | 0.00342
x2 = 0.0009002, x1 = 4.89e-06 | – | – | – | 0.0032 | 0.00359
x2 = 0.0009002, x1 = 5.07e-06 | 0.00218 | 0.00249 | 0.00283 | – | –
x2 = 0.0009002, x1 = 5.43e-06 | 0.00228 | 0.0026 | 0.00295 | 0.00334 | 0.00376
x2 = 0.0009002, x1 = 5.79e-06 | 0.00238 | 0.00271 | 0.00307 | 0.00346 | 0.00389
x2 = 0.0009002, x1 = 6.16e-06 | 0.00246 | 0.0028 | 0.00317 | 0.00358 | 0.00403
x2 = 0.001799, x1 = 1.8e-07 | 0.00108 | 0.00122 | 0.00138 | 0.00154 | 0.00173
x2 = 0.001799, x1 = 3.6e-07 | 0.00119 | 0.00135 | 0.00152 | 0.00169 | 0.00189
x2 = 0.001799, x1 = 7.3e-07 | 0.00132 | 0.00149 | 0.00168 | 0.00188 | 0.00209
x2 = 0.001799, x1 = 1.09e-06 | 0.00145 | 0.00164 | 0.00185 | 0.00206 | 0.0023
x2 = 0.001799, x1 = 1.27e-06 | 0.00157 | 0.00178 | 0.00199 | 0.00222 | 0.00248
x2 = 0.001799, x1 = 1.46e-06 | 0.00171 | 0.00193 | 0.00216 | 0.00242 | 0.00269
x2 = 0.001799, x1 = 1.64e-06 | 0.00177 | 0.002 | 0.00225 | 0.00252 | 0.0028
x2 = 0.001799, x1 = 1.82e-06 | 0.00183 | 0.00207 | 0.00233 | 0.0026 | 0.0029
x2 = 0.001799, x1 = 2e-06 | 0.00188 | 0.00213 | 0.0024 | 0.00268 | 0.00299
x2 = 0.001799, x1 = 2.18e-06 | 0.00196 | 0.00224 | 0.00252 | 0.00282 | 0.00314
x2 = 0.001799, x1 = 2.37e-06 | – | 0.00234 | 0.00267 | 0.00298 | 0.00332
x2 = 0.001799, x1 = 2.55e-06 | 0.00205 | – | – | – | –
x2 = 0.001799, x1 = 2.73e-06 | 0.00216 | 0.00248 | – | 0.00317 | 0.00355
x2 = 0.001799, x1 = 3.09e-06 | 0.00226 | 0.00258 | 0.00292 | 0.0033 | 0.0037
x2 = 0.001799, x1 = 3.46e-06 | 0.00234 | 0.00268 | 0.00304 | 0.00342 | 0.00384
